# According to article PMC5339874, “Fluorene-9-bisphenol is anti-oestrogenic and may cause adverse pregnancy outcomes in mice” (Nature Communications, 2017):
# Like-named read-outs stand apart in the source and are kept apart here.
# Assays:
# [1] = molecular target: T1, human oestrogen receptor α (Homo sapiens, UniProt P03372); test: Dual-luciferase reporter assay, full-length ERα and ERE in JEG-3 cells; assay type: cell-based
# T1 construct: expressed in transfected cells; host or cells: JEG-3 human choriocarcinoma cells
# T1 sequence (P03372 1-595): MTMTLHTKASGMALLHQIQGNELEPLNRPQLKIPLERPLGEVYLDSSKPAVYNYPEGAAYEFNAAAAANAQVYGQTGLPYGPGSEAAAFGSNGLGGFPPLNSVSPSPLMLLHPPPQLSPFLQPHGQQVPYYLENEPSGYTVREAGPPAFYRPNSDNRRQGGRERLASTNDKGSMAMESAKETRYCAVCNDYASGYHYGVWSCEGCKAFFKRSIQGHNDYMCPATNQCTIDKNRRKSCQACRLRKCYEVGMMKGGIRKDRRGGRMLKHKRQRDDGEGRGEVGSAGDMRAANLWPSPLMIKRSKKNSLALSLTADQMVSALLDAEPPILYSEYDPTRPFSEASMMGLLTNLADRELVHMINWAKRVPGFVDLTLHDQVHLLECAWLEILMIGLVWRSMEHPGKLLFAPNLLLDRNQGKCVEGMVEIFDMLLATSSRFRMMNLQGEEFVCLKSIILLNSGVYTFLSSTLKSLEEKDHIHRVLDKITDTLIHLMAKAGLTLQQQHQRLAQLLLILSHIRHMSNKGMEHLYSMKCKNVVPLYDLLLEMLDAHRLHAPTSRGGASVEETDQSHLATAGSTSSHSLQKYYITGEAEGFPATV
# Method: Dual-luciferase reporter assays were carried out primarily according to the method described in a previous study. In short, full-length sequences of human oestrogen receptor α and β were amplified by RT-PCR using mRNA from MCF-7 (Supplementary Table 3), and inserted into a pSVSPORT1 (Invitrogen); the resulting constructs were termed pSVhERα and pSVhERβ. A reporter plasmid containing ERE was constructed by inserting four tandem repeats of an ERE of Xenopus laevis vitellogenin A2 into a pGL4.23 vector (Promega), and was termed pGL4-ERE-luc. […] The Renilla LUC control reporter construct pGL4.74-TK was purchased from Promega (Madison, WI). […] The assays were performed in quadruplicate, and the results were expressed as the fold induction of the control after normalization against Renilla luciferase activity. Sigmoidal dose-effect curves were calculated using the GraphPad Prism 4 software. The IC50 values were calculated on the basis of the sigmoidal dose-effect curves. […]
# [2] = tested on: CD-1 mice; test: Uterotrophic assay, 3 days beginning on PND 21; assay type: in vivo; details: combined with 400 μg kg^−1 bw d^−1 E2; 250 and 500 mg kg^−1 d^−1 groups; P<0.01
# Method: […] […] Ten mice per group were used for the assays. Error bars indicate the s.d.'s from the average. *P<0.05 compared with the corresponding control. **P<0.01 compared with the corresponding control. Significance was tested by Fisher's LSD test.
# [3] = tested on: sprr2a and sprr2b; test: Q-RT-PCR of sprr2a and sprr2b in uteri after 10-day dosing; assay type: in vivo, mice; details: 10 days; P<0.05
# Method: The uteri, ovaries and livers were collected for total RNA isolation. Total RNA was isolated using Trizol reagent (Invitrogen) and further purified by NucleoSpin RNA Clean-up (Macherey-Nagel, Germany). Fluorescence labelling of the RNA samples was performed with a Jingxin cRNA linear amplification and labelling kit (CapitalBio) according to the manufacturer's instructions. The total RNA from each pool of tissue samples (a mixture from three animals) was used for microarray analysis. Cy3 dCTP was used to label the samples. The labelled products were added to SurePrint G3 mouse gene expression 8 × 60 K microarrays (Agilent) and incubated overnight at 42 °C. Following hybridization, the gene arrays were washed and scanned using an Agilent G2565CA Microarray Scanner. Glyceraldehyde 3-phosphate dehydrogenase (GAPDH) was used as an endogenous control to monitor the quality of the target preparation. The data were processed with feature extraction software (GeneSpring GX v.11; Agilent). The raw signals were log-transformed and normalized with the percentile shift normalization method. All arrays met the minimum Agilent QA/QC standards. To verify the data from the gene array, 14 genes were chosen as candidates for Q-RT-PCR. Primers are listed in Supplementary Table 4. GAPDH was used as an endogenous control. […] The relative expression was quantified using the 2^(−ΔΔCt) method. […]
# [4] = tested on: MCF-7 human breast cancer cells; set-up: method as in earlier work; details: granted patent CN102727470; cited from earlier work
smiles,measurement,setting,value
"Oc1ccc(C2(c3ccc(O)cc3)c3ccccc3-c3ccccc32)cc1 [BHPF, 9,9-bis(4-hydroxyphenyl)-fluorene]",IC50,"[1]; coexisted with 1 × 10^−9 M E2, read-out: IC50, anti-oestrogenic activity",109 nM
same,IC50,"[1]; vs 1 nM E2, read-out: IC50 converted to mass concentration (converted)",109 nM
same,effect on uterotrophic effect of E2,[2],inhibited the uterotrophic effect of E2
same,doses significantly down-regulating sprr2a and sprr2b in uteri,[3],≥ 9.26 mg kg^−1 bw d^−1
same,proliferation of MCF-7 human breast cancer cells,[4],inhibited the proliferation
